Assay results taken from publication PMC3086245 (Emerging Infectious Diseases, 2010).

Columns and labels:
[1] = tested on: influenza viruses A (H1N1) isolates, H275Y on N1 NA protein; set-up: species or system influenza virus A (H1N1)
[2] = target: NA of oseltamivir-resistant influenza viruses A (H1N1) (ORVs) with H275Y (Influenza A virus (H1N1), UniProt E3JK96); type: biochemical

SMILES | susceptibility to oseltamivir (in words) [1] | sensitivity of ORVs to the drug (in words) [2]
CCOC(=O)C1=C[C@@H](OC(CC)CC)[C@H](NC(C)=O)[C@@H](N)C1 [Oseltamivir, oseltamivir] | resistant | 
CC(=O)N[C@H]1[C@H]([C@H](O)[C@H](O)CO)OC(C(=O)O)=C[C@@H]1N=C(N)N [Zanamivir, zanamivir] |  | sensitive
